Legend:
CD4 = CD4 (Homo sapiens, UniProt P01730); test: Inhibition of binding of control anti-CD4 mAb Sim.2 to cells; assay type: cell-based; conditions: titration, H9 cells and primary T cell blasts, Fig. 2B
TZM-bl = test: MTS toxicity on TZM-bl; assay type: cell-based; conditions: 72 h, concentrations up to 4 μM, data not shown
CXCR4 [1] = target: T1, CXCR4 (Homo sapiens, UniProt P61073); test: Fluorescent T-140/CXCR4 cross-link inhibition; assay type: binding
H9 = test: MTS toxicity on H9; assay type: cell-based; conditions: H9, 72 h, concentrations up to 4 μM, data not shown
PHA blast cultures = test: MTS toxicity on PHA blast cultures; assay type: cell-based; conditions: 72 h, concentrations up to 4 μM, data not shown
CXCR4 [2] = target: T1, CXCR4; test: Inhibition of binding of anti-CXCR4 mAbs to cells; assay type: cell-based; conditions: for inhibition of binding of anti-CXCR4 mAb 12G5 / inhibition of binding of anti-CXCR4 mAb 44708 / inhibition of binding of anti-CXCR4 mAb 44716 / inhibition of binding of anti-CXCR4 mAb 44717: 3 μM, Fig. 2C; for blocking of anti-CXCR4 mAb 44716 binding: H9 lymphoma cells, 1 μM compound, Fig. 2A; for inhibition of anti-CXCR4 mAb 12G5 binding: titration, H9 cells and primary T cell blasts, Fig. 2B
X4 strains of HIV-1 = test: TZM-bl HIV-1 neutralization assay, X4 isolates; assay type: cell-based; conditions: TZM-bl cells, Fig. 3B

T1 sequence (P61073 whole entry): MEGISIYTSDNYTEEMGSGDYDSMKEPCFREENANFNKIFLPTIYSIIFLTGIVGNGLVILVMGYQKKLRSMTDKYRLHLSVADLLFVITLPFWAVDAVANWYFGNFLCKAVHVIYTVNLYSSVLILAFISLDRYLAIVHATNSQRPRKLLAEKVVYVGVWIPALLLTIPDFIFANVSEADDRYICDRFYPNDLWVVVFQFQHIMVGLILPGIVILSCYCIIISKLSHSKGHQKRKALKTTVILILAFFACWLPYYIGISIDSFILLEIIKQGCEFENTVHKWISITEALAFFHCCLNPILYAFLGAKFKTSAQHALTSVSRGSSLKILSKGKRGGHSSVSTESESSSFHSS

| Structure (SMILES) | inhibition of anti-CD4 mAb Sim.2 binding (CD4) | inhibition in MTS dye reduction (TZM-bl) | fold higher CXCR4 affinity than the previously published phenylguanides (CXCR4 [1]) [fold] | inhibition in MTS dye reduction (H9) | inhibition in MTS dye reduction (PHA blast cultures) | inhibition of binding of anti-CXCR4 mAb 12G5 (CXCR4 [2]) | inhibition of binding of anti-CXCR4 mAb 44708 (CXCR4 [2]) | inhibition of binding of anti-CXCR4 mAb 44716 (CXCR4 [2]) | inhibition of binding of anti-CXCR4 mAb 44717 (CXCR4 [2]) | blocking of anti-CXCR4 mAb 44716 binding (CXCR4 [2]) | inhibition of anti-CXCR4 mAb 12G5 binding (CXCR4 [2]) | inhibition of a panel of four X4-tropic viruses (X4 strains of HIV-1) |
| --- | --- | --- | --- | --- | --- | --- | --- | --- | --- | --- | --- | --- |
| N=C(NCCCNCCCCN(CCCNC(=N)Nc1cccc2ccccc12)C(=N)Nc1cccc2ccccc12)Nc1cccc2ccccc12 [spermine tris-1-NapG, spermine tris-1-naphthylguanide] | not anti-CD4 | no significant inhibition | 5 | no significant inhibition | no significant inhibition | completely inhibited | only partly inhibited | completely inhibited | only partly inhibited | most effective | inhibits anti-CXCR4 binding | all were inhibited at submicromolar concentrations |
| N=C(NCCCNCCCCN(CCCNC(=N)Nc1ccc2ccccc2c1)C(=N)Nc1ccc2ccccc2c1)Nc1ccc2ccccc2c1 [spermine tris-2-NapG, spermine tris-2-naphthylguanide] |  |  |  |  |  |  |  |  |  | next best |  |  |
| NCCCNCCCCNCCCN [spermine, reference compound] |  |  |  |  |  | No inhibition | No inhibition | No inhibition | No inhibition |  | does not inhibit |  |
